Data from ChEMBL document CHEMBL1201862, “PubChem BioAssay data set” (2004).
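Tested at 5 concentrations; 48 h exposure; 96-well plates; endpoints linearly interpolated, else capped at highest concentration. GI50 = concentration required for 50% inhibition of growth.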 The source made the active and inactive calls. Cut-off read from the data, not from the text of the source: active = GI50 up to about 1.1 µM and inactive = higher.

How the values were obtained:
Assay in all cases: DTP human tumour cell line panel, 48 h
NCI/ADR-RES = system: NCI/ADR-RES
LXFL 529 = system: LXFL 529
DMS-273 = system: DMS-273
SF-268 = system: SF-268
SF-539 = system: SF-539
NCI-H522 = system: NCI-H522
TK-10 = system: TK-10
PC-3 = system: PC-3
T47D = system: T47D
IGROV-1 = system: IGROV-1
RXF 393 = system: RXF 393
SK-OV-3 = system: SK-OV-3
OVCAR-4 = system: OVCAR-4
A498 = system: A498
LOX IMVI = system: LOX IMVI
SK-MEL-5 = system: SK-MEL-5
MDA-MB-231 = system: MDA-MB-231
ACHN = system: ACHN
CCRF-CEM = system: CCRF-CEM
DMS-114 = system: DMS-114

Measured: GI50

CC1C(=O)C(C)C(c2ccccc2)N(N=O)C1c1ccccc1 (centres undefined)
inactive: NCI/ADR-RES 179 µM | LXFL 529 > 1000 µM | DMS-273 > 798 µM | SF-268 65.2 µM | SF-539 86.5 µM | NCI-H522 > 78.3 µM | TK-10 207 µM | PC-3 152 µM | T47D 60.8 µM | IGROV-1 > 72.9 µM | RXF 393 36.9 µM | SK-OV-3 37.2 µM | OVCAR-4 > 65.9 µM | A498 247 µM | LOX IMVI > 533 µM | SK-MEL-5 > 410 µM | MDA-MB-231 85.3 µM | ACHN 143 µM | CCRF-CEM > 662 µM

COC1(OC)c2ccccc2C2(O)c3ccccc3C(=O)C12 (centres undefined)
inactive: LXFL 529 20.7 µM | DMS-114 35.6 µM | DMS-273 25.2 µM | SF-268 > 100 µM | SF-539 61 µM | NCI-H522 10.2 µM | TK-10 37.3 µM | IGROV-1 18.2 µM | RXF 393 > 100 µM | SK-OV-3 70.1 µM | LOX IMVI 44.7 µM | SK-MEL-5 9.16 µM | ACHN 34.1 µM | CCRF-CEM 22.5 µM

O=C(Nc1ccccc1)c1ccc(Cl)c([N+](=O)[O-])c1
inactive: LXFL 529 3.78 µM | DMS-114 16.6 µM | DMS-273 3.45 µM | SF-268 > 10 µM | SF-539 21.4 µM | NCI-H522 6.79 µM | TK-10 29.3 µM | IGROV-1 14.8 µM | RXF 393 21.7 µM | SK-OV-3 23.6 µM | A498 21.8 µM | LOX IMVI 4.46 µM | SK-MEL-5 5.82 µM | CCRF-CEM 4.14 µM

CC(NC(=O)C(=O)N/N=C1\C[C@@H](c2ccccc2)Nc2ccccc21)c1ccccc1 (some centres undefined)
inactive: LXFL 529 77.4 µM | DMS-114 97.1 µM | DMS-273 7.55 µM | SF-268 94.6 µM | SF-539 > 100 µM | NCI-H522 > 100 µM | TK-10 > 100 µM | RXF 393 53.7 µM | OVCAR-4 29.3 µM | LOX IMVI > 100 µM | ACHN 36.1 µM

CNS(=O)(=O)NNS(=O)(=O)c1ccc(F)cc1
inactive: LXFL 529 > 100 µM | DMS-114 > 100 µM | DMS-273 > 100 µM | SF-268 > 100 µM | SF-539 > 100 µM | NCI-H522 > 100 µM | IGROV-1 > 100 µM | RXF 393 > 100 µM | OVCAR-4 > 100 µM | A498 > 100 µM | LOX IMVI > 100 µM | SK-MEL-5 > 100 µM | ACHN > 100 µM | CCRF-CEM > 100 µM

NCc1c(C(N)=O)ncn1Cc1ccccc1
inactive: LXFL 529 > 100 µM | DMS-114 > 100 µM | DMS-273 > 100 µM | SF-539 > 100 µM | TK-10 > 100 µM | IGROV-1 > 100 µM | RXF 393 > 100 µM | SK-OV-3 > 100 µM | OVCAR-4 > 100 µM | A498 > 100 µM | LOX IMVI > 100 µM | SK-MEL-5 > 100 µM | ACHN > 100 µM | CCRF-CEM > 100 µM

CC(=O)NNc1nc(C)c(C(/C=C/c2ccc(Cl)cc2)=N/NC(=O)C[N+](C)(C)C)s1
inactive: LXFL 529 > 100 µM | DMS-114 > 100 µM | DMS-273 > 100 µM | SF-268 > 100 µM | SF-539 > 100 µM | NCI-H522 > 100 µM | TK-10 > 100 µM | IGROV-1 > 100 µM | RXF 393 > 100 µM | SK-OV-3 > 100 µM | OVCAR-4 > 100 µM | A498 > 100 µM | LOX IMVI > 100 µM | SK-MEL-5 > 100 µM | ACHN > 100 µM | CCRF-CEM > 100 µM

O=C(NN1C(=O)CS(=O)(=O)C1c1cccc(F)c1)c1ccncc1 (centres undefined)
inactive: LXFL 529 > 100 µM | DMS-114 > 100 µM | DMS-273 > 100 µM | SF-268 > 100 µM | NCI-H522 > 100 µM | TK-10 > 100 µM | RXF 393 > 100 µM | SK-OV-3 > 100 µM | OVCAR-4 > 100 µM | A498 > 100 µM | LOX IMVI > 100 µM | SK-MEL-5 > 100 µM | ACHN > 100 µM

Cc1ccc(Nc2nc(C)c(C(/C=C/c3ccc4c(c3)OCO4)=N/Nc3ccc([N+](=O)[O-])cc3[N+](=O)[O-])s2)c([N+](=O)[O-])c1
inactive: LXFL 529 6.03 µM | DMS-114 13.3 µM | DMS-273 25.9 µM | SF-268 53.2 µM | SF-539 36.3 µM | NCI-H522 14.2 µM | TK-10 37.8 µM | IGROV-1 62.7 µM | RXF 393 38 µM | SK-OV-3 26.7 µM | OVCAR-4 56.6 µM | LOX IMVI 16.3 µM | ACHN 21.5 µM | CCRF-CEM 28.2 µM

COc1cc(C(C)c2cc3c(cc2OCCNC(=O)COc2cc4c(cc2C(C)c2cc(OC)c(OC)c(OC)c2)OCO4)OCO3)cc(OC)c1OC (centres undefined)
inactive: LXFL 529 44.2 µM | DMS-114 26.9 µM | DMS-273 75.9 µM | SF-268 50.4 µM | SF-539 > 100 µM | NCI-H522 29.5 µM | TK-10 > 100 µM | IGROV-1 > 100 µM | RXF 393 > 100 µM | OVCAR-4 > 100 µM | A498 > 100 µM | LOX IMVI 42.3 µM | SK-MEL-5 > 100 µM | ACHN 63.2 µM | CCRF-CEM 30.5 µM

N#CC(/C(CCCC(=O)Nc1cccc([N+](=O)[O-])c1)=N\NC(=O)c1c(O)ccc2ccccc12)c1nc2ccccc2s1 (centres undefined)
inactive: LXFL 529 30.8 µM | DMS-114 12.6 µM | DMS-273 8.63 µM | SF-268 13.1 µM | SF-539 15.3 µM | NCI-H522 25.8 µM | IGROV-1 13.3 µM | RXF 393 33.4 µM | SK-OV-3 25.5 µM | OVCAR-4 24.3 µM | A498 35.1 µM | SK-MEL-5 28.2 µM | ACHN 20.7 µM | CCRF-CEM 5.35 µM

COc1cc2c(cc1O)C(C)Cc1cc3c(cc1N(C)CC2)OCO3 (centres undefined)
inactive: LXFL 529 5.41 µM | DMS-114 3.54 µM | DMS-273 2.87 µM | SF-268 5.3 µM | SF-539 2.72 µM | NCI-H522 2.18 µM | TK-10 27.3 µM | IGROV-1 10 µM | RXF 393 1.77 µM | SK-OV-3 3.32 µM | OVCAR-4 15.7 µM | A498 13.2 µM | LOX IMVI 5.68 µM | SK-MEL-5 2.59 µM | ACHN 6.85 µM | CCRF-CEM 4.59 µM

COc1ccc(/C=C/C(=O)C(C)(C)CN2CCCCC2)cc1
inactive: LXFL 529 15.5 µM | DMS-114 15 µM | DMS-273 18.2 µM | SF-268 22.1 µM | SF-539 19.8 µM | NCI-H522 14 µM | TK-10 20.8 µM | IGROV-1 26.2 µM | RXF 393 21.3 µM | SK-OV-3 21.5 µM | OVCAR-4 7.36 µM | A498 16.9 µM | LOX IMVI 14.9 µM | SK-MEL-5 19 µM | ACHN 24.4 µM | CCRF-CEM 24.2 µM

CC1OC(n2ccc3ccc([N+](=O)[O-])cc32)C(O)C(O)C1O (centres undefined)
inactive: LXFL 529 > 100 µM | DMS-114 > 100 µM | DMS-273 > 100 µM | SF-268 > 100 µM | SF-539 > 100 µM | NCI-H522 > 100 µM | TK-10 > 100 µM | IGROV-1 > 100 µM | RXF 393 > 100 µM | SK-OV-3 > 100 µM | OVCAR-4 > 100 µM | A498 > 100 µM | LOX IMVI > 100 µM | SK-MEL-5 > 100 µM | ACHN > 100 µM | CCRF-CEM > 100 µM

CC(=O)N(C)c1ccc2c(ccc[n+]2[O-])c1[N+](=O)[O-]
inactive: LXFL 529 > 100 µM | DMS-114 > 100 µM | DMS-273 > 100 µM | SF-268 > 100 µM | SF-539 > 100 µM | TK-10 > 100 µM | IGROV-1 > 100 µM | RXF 393 > 100 µM | OVCAR-4 > 100 µM | A498 > 100 µM | LOX IMVI > 100 µM | SK-MEL-5 > 100 µM | ACHN > 100 µM | CCRF-CEM > 100 µM

CN(C)CCNC(=O)c1cccc2nc3c(Cl)cccc3nc12
inactive: LXFL 529 9.84 µM | DMS-114 3.57 µM | DMS-273 5.09 µM | SF-539 4.75 µM | NCI-H522 14.3 µM | TK-10 4.09 µM | IGROV-1 6.41 µM | RXF 393 3.4 µM | SK-OV-3 17.3 µM | OVCAR-4 6.31 µM | A498 4.63 µM | LOX IMVI 3.14 µM | SK-MEL-5 5.06 µM | ACHN 3.13 µM

O=C(/C=C\c1cccc2ccccc12)c1ccc(Cl)cc1Cl
inactive: LXFL 529 18.3 µM | DMS-114 14.8 µM | DMS-273 18.8 µM | SF-268 19.6 µM | SF-539 25.8 µM | NCI-H522 19.2 µM | TK-10 97.1 µM | IGROV-1 39.7 µM | SK-OV-3 > 100 µM | OVCAR-4 43.6 µM | A498 > 100 µM | SK-MEL-5 36.7 µM | ACHN 18.6 µM | CCRF-CEM 17.3 µM

O=[N+]([O-])c1nccn1CC(O)c1ccccc1 (centres undefined)
inactive: LXFL 529 > 100 µM | DMS-114 > 100 µM | DMS-273 > 100 µM | SF-268 > 100 µM | SF-539 > 100 µM | NCI-H522 > 100 µM | TK-10 > 100 µM | IGROV-1 > 100 µM | RXF 393 > 100 µM | SK-OV-3 > 100 µM | OVCAR-4 > 100 µM | A498 > 100 µM | LOX IMVI > 100 µM | SK-MEL-5 > 100 µM | ACHN > 100 µM | CCRF-CEM > 100 µM
